For assay [1], the target named is T1, c-Myc/Max/Ebox DNA (Homo sapiens, UniProt P01106).
T1 construct: his6 (cleaved yes)
In words: c-Myc/Max/Ebox DNA AlphaScreen Assay. The class given is binding. To be noted: calculated IC50 class. Put shortly: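 Compounds were preincubated with free c-Myc (20 nM), biotinylated single-Ebox DNA (10 nM) and Ni acceptor beads before his6-Max (5 nM) and streptavidin donor beads were added. Buffer was 50 mM HEPES pH 8.0, 150 mM NaCl, BSA, Tween20, glycogen and DTT, with DMSO ≤2%. After 2 h incubation, AlphaScreen signal was read at 680 nm excitation and 520–620 nm emission.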

Assay [2] relates to human small lung cancer cell line H2171. In words: Cell Viability Assay (ATPlite). The class given is cell-based. To be noted: H2171 cells, three days, ATPlite, calculated IC50 class, read-out: H2171 Activity. Put shortly:
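H2171 cells were plated at 20,000 cells/mL and dosed immediately by pin transfer with a 10-point dose series in DMSO. After three days at 37° C, ATPlite luminescence served as the viability readout.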

Where [3] appears, read: Homo sapiens, NCI-H2171, 72 h, Table 2, compounds of FIG. 1.

The values below come from patent US10787444B2, “Compounds for the modulation of myc activity” (Syros Pharmaceuticals, Inc., priority 2015, dated 2020).

Where two headings read alike, the source gives them in different places.

T1 sequence (P01106 whole entry): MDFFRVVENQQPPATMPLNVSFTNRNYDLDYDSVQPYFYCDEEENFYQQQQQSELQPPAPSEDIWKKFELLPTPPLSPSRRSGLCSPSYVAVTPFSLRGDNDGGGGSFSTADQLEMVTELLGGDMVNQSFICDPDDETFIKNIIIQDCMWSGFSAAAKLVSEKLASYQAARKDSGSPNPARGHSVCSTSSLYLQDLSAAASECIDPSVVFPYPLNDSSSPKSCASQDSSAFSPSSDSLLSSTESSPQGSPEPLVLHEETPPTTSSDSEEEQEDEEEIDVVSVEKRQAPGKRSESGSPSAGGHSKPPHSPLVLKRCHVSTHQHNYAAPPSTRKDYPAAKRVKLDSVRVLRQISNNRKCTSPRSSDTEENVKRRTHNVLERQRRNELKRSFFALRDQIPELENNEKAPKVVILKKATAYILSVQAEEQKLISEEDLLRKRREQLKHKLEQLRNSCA

Consider `CC(C)NCCC(=O)Nc1sc2c(c1-c1nc3ccccc3s1)CC(C)NC2C` (single isomer, unassigned) [Compound 196, N-(3-(benzo[d]thiazol-2-yl)-5,7-dimethyl-4,5,6,7-tetrahydrothieno[2,3-c]pyridin-2-yl)-3-(isopropylamino)propanamide], for which the IC50 was 300 to 1000 nM in assay [1] (Table 2, compounds of FIG. 1) and under 300 nM in assay [2] (setting [3]).

Consider `CC[C@@H](C)NCCC(=O)Nc1sc2c(c1-c1nc3cc(F)ccc3s1)CCNC2` [Compound 185, (R)-3-(sec-butylamino)-N-(3-(5-fluorobenzo[d]thiazol-2-yl)-4,5,6,7-tetrahydrothieno[2,3-c]pyridin-2-yl)propanamide], for which the IC50 in assay [1] (Table 2, compounds of FIG. 1) was under 300 nM; in assay [2] (setting [3]), under 300 nM.

With `COCCNCCC(=O)Nc1sc2c(c1-c1nc3c(Br)cccc3s1)CCNC2` [compound 559], the IC50 is under 300 nM in assay [1] (Table 2, compounds of FIG. 1) and under 300 nM in assay [2] (setting [3]).

Turning to `CC(=O)Nc1sc2c(c1-c1nc3cc(C(F)(F)F)ccc3s1)CCNC2` [Compound 204, N-(3-(5-(trifluoromethyl)benzo[d]thiazol-2-yl)-4,5,6,7-tetrahydrothieno[2,3-c]pyridin-2-yl)acetamide], the IC50 in assay [1] (Table 3, compounds of FIG. 2) was 1000 to 10000 nM; in assay [2] (Homo sapiens, NCI-H2171, 72 h, Table 3, compounds of FIG. 2) it was 1000 to 10000 nM.

Take `CC[C@H](C)NCCC(=O)Nc1sc2c(c1-c1nc3cc(-c4ccncc4)ccc3s1)C[C@@H](C)NC2` [Compound 589, 3-(((S)-sec-butyl)amino)-N—((R)-5-methyl-3-(5(pyridin-4-yl)benzo[d]thiazol-2-yl)-4,5,6,7-tetrahydrothieno[2,3-c]pyridin-2-yl)propanamide]: the IC50 is under 300 nM in assay [1] (Table 2, compounds of FIG. 1) and under 300 nM in assay [2] (setting [3]).

For `COCCNCCC(=O)Nc1sc2c(c1-c1nc3cc(-c4cccnc4)ccc3s1)CC(C)NC2C` (single isomer, unassigned) [Compound 525, N-(5,7-Dimethyl-3-(5-(pyridin-3-yl)benzo[d]thiazol-2-yl)-4,5,6,7-tetrahydrothieno[2,3-c]pyridin-2-yl)-3-((2-methoxyethyl)amino)propanamide], the IC50 in assay [1] (Table 2, compounds of FIG. 1) is under 300 nM; in assay [2] (Table 2, compounds of FIG. 1), under 300 nM.

Turning to “3-(Azetidin-1-yl)-N-(3-(benzo[d]thiazol-2-yl)-6-isopropyl-4,5,6,7-tetrahydrothieno[2,3-c]pyridin-2-yl)propanamide [Compound 541]”, the IC50 in assay [1] (Table 2, compounds of FIG. 1) was 300 to 1000 nM; in assay [2] (Table 2, compounds of FIG. 1), 1000 to 10000 nM.

Take `CC(C)NCCC(=O)Nc1sc2c(c1-c1nc3c(S(C)(=O)=O)cccc3s1)CCNC2` [compound 553]: the IC50 in assay [1] (Table 2, compounds of FIG. 1) is under 300 nM; in assay [2] (setting [3]), under 300 nM.

In the case of `COCCNCCC(=O)Nc1sc2c(c1-c1nc3cc(-c4ccnc(F)c4)ccc3s1)CCNC2` [compound 458], the IC50 in assay [1] (Table 2, compounds of FIG. 1) was under 300 nM; in assay [2] (setting [3]), under 300 nM.

With `CCC(C)NCCC(=O)Nc1sc2c(c1-c1nc3cc(C(F)(F)F)ccc3s1)CCNC2` (centres unmarked) [Compound 125, 3-(sec-butylamino)-N-(3-(5-(trifluoromethyl)benzo[d]thiazol-2-yl)-4,5,6,7-tetrahydrothieno[2,3-c]pyridin-2-yl) propanamide], the IC50 in assay [1] (Table 2, compounds of FIG. 1) is 300 to 1000 nM; in assay [2] (setting [3]) it was 300 to 1000 nM.

As for `COCCNCCC(=O)Nc1sc2c(c1-c1nc3ccc(-c4ccnc(F)c4)cc3s1)CCNC2` [compound 456], the IC50 is under 300 nM in assay [1] (Table 2, compounds of FIG. 1) and under 300 nM in assay [2] (setting [3]).

For the molecule `COCCNCCC(=O)Nc1sc2c(c1-c1nc3ccc(-c4cc(C)[nH]n4)cc3s1)CCNC2` [compound 355], the IC50 in assay [1] (Table 2, compounds of FIG. 1) was under 300 nM; in assay [2] (setting [3]) it was under 300 nM.

In the case of `COCCNCCC(=O)Nc1sc2c(c1-c1nc3ccc(-c4cccnc4)cc3s1)CC(C)NC2C` (single isomer, unassigned) [Compound 528, N-(5,7-Dimethyl-3-(6-(pyridin-3-yl)benzo[d]thiazol-2-yl)-4,5,6,7-tetrahydrothieno[2,3-c]pyridin-2-yl)-3-((2-methoxyethyl)amino)propanamide], the IC50 in assay [1] (Table 2, compounds of FIG. 1) was 300 to 1000 nM; in assay [2] (Table 2, compounds of FIG. 1), 300 to 1000 nM.
